One experiment concerns SARS-CoV-2 NSP7-HiBiT. Conditions: read-out: NSP7- HiBiT; reduction of NSP7-HiBiT signal; degrader. In general terms: HiBiT is a short tag that completes a luciferase, so light tracks the accessible tagged protein.
The test system of another experiment is T1, HCoV-OC43.
T1 construct: ATCC VR-1558
Briefly: microbe, parasite or virus in culture. More on the design: HCoV-OC43 infection assay, reduction of viral infection. Conditions: Betacoronavirus 1, OC43, read-out: OC43.

In the case of `CCSc1nsc(NC(=O)NCc2ccc(F)cc2)n1` [BC24886, 3-(ethylthio)-5-{3-[(p-fluorophenyl)methyl]ureido}-1,2,4-thiadiazole], the IC50 in the experiment with SARS-CoV-2 NSP7-HiBiT and in the experiment on HCoV-OC43 was above 100 µM each time.
For the compound `CCSc1nsc(NC(=O)NC[C@H]2CCCO2)n1` [BC24887, 3-(ethylthio)-5-(3-{[(R)-perhydro-2-furyl]methyl}ureido)-1,2,4-thiadiazole], the IC50 with SARS-CoV-2 NSP7-HiBiT and with HCoV-OC43 was above 100 µM in each case.
With `CCSc1nsc(NC(=O)Nc2cccc(SC)c2)n1` [BC24888, 3-(ethylthio)-5-{3-[m-(methylthio)phenyl]ureido}-1,2,4-thiadiazole], the figures for the IC50 with SARS-CoV-2 NSP7-HiBiT and in the experiment with HCoV-OC43 were 9.09 µM and 5.27 µM, respectively.
In the case of `CCSc1nsc(NC(=O)N[C@@H](C)C(=O)OC)n1` [BC24889, methyl (S)-2-{3-[3-(ethylthio)-1,2,4-thiadiazol-5-yl]ureido}propionate], the IC50 in the experiment on SARS-CoV-2 NSP7-HiBiT and with HCoV-OC43 was above 100 µM each time.
In the case of `CCSc1nsc(NC(=O)NC(C)C)n1` [BC24891, 3-(ethylthio)-5-(3-isopropylureido)-1,2,4-thiadiazole], the IC50 in the experiment on SARS-CoV-2 NSP7-HiBiT and with HCoV-OC43 was above 100 µM throughout.
Consider `CCSc1nsc(NC(=O)N[C@@H](C)CC)n1` [BC24892, 5-{3-[(S)-1-methylpropyl]ureido}-3-(ethylthio)-1,2,4-thiadiazole], for which the IC50 in the experiment on SARS-CoV-2 NSP7-HiBiT and with HCoV-OC43 was above 100 µM in each case.
As to `CCSc1nsc(NC(=O)NCCC(C)C)n1` [BC24893, 3-(ethylthio)-5-(3-isopentylureido)-1,2,4-thiadiazole], the IC50 worked out at 18.5 µM in the experiment with SARS-CoV-2 NSP7-HiBiT and 13.7 µM with HCoV-OC43.
Take `CCSc1nsc(NC(=O)NC2CCCCC2)n1` [BC24894, 5-(3-cyclohexylureido)-3-(ethylthio)-1,2,4-thiadiazole]: the IC50 in the experiment with SARS-CoV-2 NSP7-HiBiT was 23.7 µM; with HCoV-OC43 it was 17.5 µM.
Turning to `CCSc1nsc(NC(=O)Nc2cccc(F)c2)n1` [BC24895, 3-(ethylthio)-5-[3-(m-fluorophenyl)ureido]-1,2,4-thiadiazole], the results for the IC50 with SARS-CoV-2 NSP7-HiBiT and in the experiment on HCoV-OC43 were 8.87 µM and 2.53 µM, respectively.
With `CCSc1nsc(NC(=O)NCC(C)C)n1` [BC24896, 3-(ethylthio)-5-(3-isobutylureido)-1,2,4-thiadiazole], the IC50 with SARS-CoV-2 NSP7-HiBiT was 29.3 µM; in the experiment on HCoV-OC43, 29.9 µM.
Regarding `CCOC(=O)CCNC(=O)Nc1nc(SCC)ns1` [BC24897, ethyl 3-{3-[3-(ethylthio)-1,2,4-thiadiazol-5-yl]ureido}propionate], the IC50 with SARS-CoV-2 NSP7-HiBiT and with HCoV-OC43 was above 100 µM throughout.
Turning to `CCSc1nsc(NC(=O)NCCOC)n1` [BC24899, 3-(ethylthio)-5-[3-(2-methoxyethyl)ureido]-1,2,4-thiadiazole], the IC50 with SARS-CoV-2 NSP7-HiBiT and in the experiment on HCoV-OC43 was above 100 µM each time.
Consider `CCSc1nsc(NC(=O)NC(C)(C)C)n1` [BC24900, 5-(3-tert-butylureido)-3-(ethylthio)-1,2,4-thiadiazole], for which the IC50 with SARS-CoV-2 NSP7-HiBiT and in the experiment on HCoV-OC43 was above 100 µM each time.
As for `CCOC(=O)[C@H](C)NC(=O)Nc1nc(SCC)ns1` [BC24902, ethyl (S)-2-{3-[3-(ethylthio)-1,2,4-thiadiazol-5-yl]ureido}propionate], the IC50 in the experiment on SARS-CoV-2 NSP7-HiBiT and in the experiment on HCoV-OC43 was above 100 µM throughout.
For `CCSc1nsc(NC(=O)NCc2cccc(F)c2)n1` [BC24904, 3-(ethylthio)-5-{3-[(m-fluorophenyl)methyl]ureido}-1,2,4-thiadiazole], the IC50 with SARS-CoV-2 NSP7-HiBiT and in the experiment with HCoV-OC43 was above 100 µM throughout.
Take `CCSc1nsc(NC(=O)Nc2c(C)cccc2C)n1` [BC24905, 3-(ethylthio)-5-[3-(2,6-xylyl)ureido]-1,2,4-thiadiazole]: the IC50 in the experiment on SARS-CoV-2 NSP7-HiBiT was 22.1 µM; with HCoV-OC43, 15.8 µM.
As for `CCSc1nsc(NC(=O)NCc2ccc(OC)cc2)n1` [BC24906, 3-(ethylthio)-5-{3-[(p-methoxyphenyl)methyl]ureido}-1,2,4-thiadiazole], the IC50 with SARS-CoV-2 NSP7-HiBiT and in the experiment on HCoV-OC43 was above 100 µM in each case.
In the case of `CCSc1nsc(NC(=O)Nc2cccc(F)c2C)n1` [BC24907, 3-(ethylthio)-5-[3-(3-fluoro-2-tolyl)ureido]-1,2,4-thiadiazole], the IC50 stood at 9.85 µM in the experiment on SARS-CoV-2 NSP7-HiBiT and 3.36 µM in the experiment on HCoV-OC43.
Regarding `CCCCc1ccc(NC(=O)Nc2nc(SCC)ns2)cc1` [BC24908, 5-[3-(p-butylphenyl)ureido]-3-(ethylthio)-1,2,4-thiadiazole], the IC50 in the experiment on SARS-CoV-2 NSP7-HiBiT turned out to be 30 µM; in the experiment with HCoV-OC43, 18.3 µM.
Regarding `CCSc1nsc(NC(=O)Nc2cc(F)c(F)c(F)c2)n1` [BC24910, 3-(ethylthio)-5-[3-(3,4,5-trifluorophenyl)ureido]-1,2,4-thiadiazole], the IC50 in the experiment on SARS-CoV-2 NSP7-HiBiT was found to be 2.23 µM; with HCoV-OC43, 0.42 µM.
Consider `CCSc1nsc(NC(=O)Nc2cccc(Cl)c2F)n1` [BC24911, 5-[3-(3-chloro-2-fluorophenyl)ureido]-3-(ethylthio)-1,2,4-thiadiazole], for which the IC50 with SARS-CoV-2 NSP7-HiBiT came to 9.72 µM; with HCoV-OC43, 8.13 µM.
`CCSc1nsc(NC(=O)Nc2ccc(C(F)(F)F)cc2)n1` [BC24912, 3-(ethylthio)-5-{3-[p-(trifluoromethyl)phenyl]ureido}-1,2,4-thiadiazole]: the IC50 was 1.76 µM in the experiment on SARS-CoV-2 NSP7-HiBiT and 0.672 µM in the experiment on HCoV-OC43.
`CCOC(=O)C1CCC(CNC(=O)Nc2nc(SCC)ns2)CC1` (centres unmarked) [BC24913, ethyl 4-({3-[3-(ethylthio)-1,2,4-thiadiazol-5-yl]ureido}methyl)cyclohexanecarboxylate]: the IC50 in the experiment on SARS-CoV-2 NSP7-HiBiT is above 100 µM; in the experiment with HCoV-OC43, 17.4 µM.
Turning to `CCSc1nsc(NC(=O)Nc2ccc3c(c2)CCC3)n1` [BC24915, 3-(ethylthio)-5-[3-(5-indanyl)ureido]-1,2,4-thiadiazole], the IC50 in the experiment with SARS-CoV-2 NSP7-HiBiT came to 34 µM; with HCoV-OC43 it was 17.4 µM.
Turning to `CCSc1nsc(NC(=O)Nc2ccc(OC)cc2C)n1` [BC24916, 3-(ethylthio)-5-[3-(4-methoxy-2-tolyl)ureido]-1,2,4-thiadiazole], the IC50 is above 100 µM with SARS-CoV-2 NSP7-HiBiT and 17.2 µM in the experiment with HCoV-OC43.
